# Assay results published in patent publication US10835542B2, “9-aminomethyl minocycline compounds and use thereof in treating community-acquired bacterial pneumonia (CABP)” (Paratek Pharmaceuticals, Inc., priority 2016, dated 2020).
smiles,measurement,setting,value
"COc1c(N2C[C@@H]3CCCN[C@@H]3C2)c(F)cc2c(=O)c(C(=O)O)cn(C3CC3)c12 [Moxifloxacin, moxifloxacin, reference compound]",Total number of deaths,ITT population,4
same,Subjects who died,Safety population,4 (1.0) n (%)
same,Subjects with at least one Adverse Event (AE),Safety population,200 (51.5) n (%)
same,Subjects with at least one Drug-Related Serious TEAE,Safety population,2 (0.5) n (%)
same,Subjects with at least one Drug-Related TEAE,Safety population,69 (17.8) n (%)
same,Subjects with at least one Serious TEAE,Safety population,26 (6.7) n (%)
same,Subjects with at least one Serious TEAE Leading to Death,Safety population,4 (1.0) n (%)
same,Subjects with at least one Serious TEAE Leading to Premature Discontinuation of Test Article,Safety population,11 (2.8) n (%)
same,Subjects with at least one Severe TEAE,Safety population,26 (6.7) n (%)
same,Subjects with at least one TEAE,Safety population,188 (48.5) n (%)
same,Subjects with at least one TEAE Leading to Dose Interruption,Safety population,0 n (%)
same,Subjects with at least one TEAE Leading to Premature Discontinuation of Study,Safety population,9 (2.3) n (%)
same,Subjects with at least one TEAE Leading to Premature Discontinuation of Test Article,Safety population,27 (7.0) n (%)
same,TEAE leading to study drug discontinuation: Diarrhoea,Safety population,1 (0.3) n (%)
same,TEAE leading to study drug discontinuation: Dyspepsia,Safety population,1 (0.3) n (%)
same,TEAE leading to study drug discontinuation: Gastrointestinal Disorders,Safety population,2 (0.5) n (%)
same,TEAE leading to study drug discontinuation: Nausea,Safety population,0 n (%)
same,TEAE leading to study drug discontinuation: Vomiting,Safety population,0 n (%)
same,TEAE: Alanine Aminotransferase Increased,Safety population,18 (4.6) n (%)
same,TEAE: Aspartate Aminotransferase Increased,Safety population,14 (3.6) n (%)
same,TEAE: Constipation,Safety population,6 (1.5) n (%)
same,TEAE: Diarrhoea,Safety population,31 (8.0) n (%)
same,TEAE: Dyspepsia,Safety population,2 (0.5) n (%)
same,TEAE: Gamma-Glutamyltransferase Increased,Safety population,8 (2.1) n (%)
same,TEAE: Headache,Safety population,5 (1.3) n (%)
same,TEAE: Hypertension,Safety population,11 (2.8) n (%)
same,TEAE: Insomnia,Safety population,8 (2.1) n (%)
same,TEAE: Nausea,Safety population,21 (5.4) n (%)
same,TEAE: Pseudomembranous Colitis,Safety population,1 (0.3) n (%)
same,TEAE: Vomiting,Safety population,6 (1.5) n (%)
same,Total Number of AEs,Safety population,520
same,Total Number of TEAEs,Safety population,461
